Measurements taken from patent US20150175584A1, “Quinazolin-THF-amines as PDE1 inhibitors” (H. LUNDBECK A/S, priority 2013, published 2015).

Tests used:
Type in all cases: biochemical
Settings in all cases: 15 nM tritium labelled cAMP, 1 h at room temperature, SPA beads
PDE1B = PDE1B (Homo sapiens, UniProt Q01064); experiment: PDE1 Inhibition Assay, PDE1B (SPA)
Description: (§1) PDE1A, PDE1B and PDE1C assays were performed as follows: the assays was performed in 60 μL samples containing a fixed amount of the PDE1 enzym1 (sufficient to convert 20-25% of the cyclic nucleotide substrate), a buffer (50 mM HEPES pH 7.6; 10 mM MgCl2; 0.02% Tween20), 0.1 mg/ml BSA, 15 nM tritium labelled cAMP and varying amounts of inhibitors. Reactions were initiated by addition of the cyclic nucleotide substrate, and reactions were allowed to proceed for 1 h at room temperature before being terminated through mixing with 20 μL (0.2 mg) yttrium silicate SPA beads (PerkinElmer). The beads were allowed to settle for 1 h in the dark before the plates were counted in a Wallac 1450 Microbeta counter. The measured signals were converted to activity relative to an uninhibited control (100%) and IC50 values were calculated using XIFit (model 205, IDBS).

PDE1A = PDE1A (Homo sapiens, UniProt P54750); experiment: PDE1 Inhibition Assay, PDE1A (SPA)
Sequence of PDE1A (P54750 whole entry): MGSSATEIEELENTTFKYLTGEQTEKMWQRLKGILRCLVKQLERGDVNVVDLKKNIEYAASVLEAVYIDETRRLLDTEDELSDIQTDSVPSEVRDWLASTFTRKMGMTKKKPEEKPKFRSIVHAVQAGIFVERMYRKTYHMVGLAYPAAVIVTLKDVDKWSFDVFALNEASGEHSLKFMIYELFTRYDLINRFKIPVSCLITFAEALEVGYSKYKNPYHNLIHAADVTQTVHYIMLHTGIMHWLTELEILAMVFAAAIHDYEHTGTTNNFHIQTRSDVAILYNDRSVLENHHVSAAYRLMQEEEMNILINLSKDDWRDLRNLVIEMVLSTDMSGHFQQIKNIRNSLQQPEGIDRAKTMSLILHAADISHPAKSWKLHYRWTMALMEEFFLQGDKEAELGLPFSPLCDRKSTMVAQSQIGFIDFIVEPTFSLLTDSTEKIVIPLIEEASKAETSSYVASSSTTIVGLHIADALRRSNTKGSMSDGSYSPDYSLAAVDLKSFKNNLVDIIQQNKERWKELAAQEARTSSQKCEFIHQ
Description: as §1

PDE1C = PDE1C (Homo sapiens, UniProt Q14123); experiment: PDE1 Inhibition Assay, PDE1C (SPA)
Sequence of PDE1C (Q14123 whole entry): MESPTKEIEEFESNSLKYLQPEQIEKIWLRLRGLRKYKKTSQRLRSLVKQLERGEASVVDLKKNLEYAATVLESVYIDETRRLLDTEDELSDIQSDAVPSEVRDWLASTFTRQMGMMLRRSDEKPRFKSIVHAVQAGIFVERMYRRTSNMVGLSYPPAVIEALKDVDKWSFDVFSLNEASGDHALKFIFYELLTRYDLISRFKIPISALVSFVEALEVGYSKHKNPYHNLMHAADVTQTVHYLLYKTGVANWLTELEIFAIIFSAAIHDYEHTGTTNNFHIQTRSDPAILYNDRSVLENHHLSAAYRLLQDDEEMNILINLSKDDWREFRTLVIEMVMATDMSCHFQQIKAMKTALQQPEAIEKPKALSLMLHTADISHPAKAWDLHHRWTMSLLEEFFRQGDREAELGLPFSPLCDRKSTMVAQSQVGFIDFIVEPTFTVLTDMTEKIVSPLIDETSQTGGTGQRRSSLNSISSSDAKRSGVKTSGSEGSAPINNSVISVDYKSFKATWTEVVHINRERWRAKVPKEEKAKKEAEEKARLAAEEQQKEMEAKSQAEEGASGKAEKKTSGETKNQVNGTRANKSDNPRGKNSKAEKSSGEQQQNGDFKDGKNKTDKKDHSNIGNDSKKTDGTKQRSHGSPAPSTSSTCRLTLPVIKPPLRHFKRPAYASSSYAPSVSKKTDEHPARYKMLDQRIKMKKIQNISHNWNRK
Description: as §1

Sequence of PDE1B (Q01064 whole entry): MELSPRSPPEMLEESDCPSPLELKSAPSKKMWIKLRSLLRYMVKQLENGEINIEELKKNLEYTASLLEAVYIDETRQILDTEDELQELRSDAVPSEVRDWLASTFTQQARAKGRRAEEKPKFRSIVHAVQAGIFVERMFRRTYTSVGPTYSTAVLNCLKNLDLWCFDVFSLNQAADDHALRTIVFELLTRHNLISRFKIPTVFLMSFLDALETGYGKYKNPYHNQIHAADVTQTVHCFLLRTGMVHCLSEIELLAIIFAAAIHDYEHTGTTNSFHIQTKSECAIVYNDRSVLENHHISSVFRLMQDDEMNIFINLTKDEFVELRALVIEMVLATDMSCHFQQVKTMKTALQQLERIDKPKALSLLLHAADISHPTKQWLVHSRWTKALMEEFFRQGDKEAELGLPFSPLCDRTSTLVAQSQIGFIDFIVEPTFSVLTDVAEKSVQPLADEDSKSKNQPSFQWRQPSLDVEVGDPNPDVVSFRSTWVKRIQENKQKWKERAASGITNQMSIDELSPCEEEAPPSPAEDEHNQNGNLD

IC50 (PDE1B) | IC50 (PDE1A) | IC50 (PDE1C) | SMILES
4 nM | 26 nM | 27 nM | COc1ccc2c(N(C)C3(C)CCOC3C)ncnc2c1OC (single isomer, unassigned) [20 Stereoisomer 2]
180 nM | 270 nM | 360 nM | CCCN(c1ncnc2c(OC)c(OC)ccc12)[C@@H]1CCOC1 [Compound 14, (R)-7,8-dimethoxy-N-propyl-N-(tetrahydrofuran-3-yl)quinazolin-4-amine]
15 nM | 77 nM | 140 nM | COc1ccc2c(NC3(C)CCOC3C)ncnc2c1OC (single isomer, unassigned) [5 Stereoisomer 4]
120 nM | 580 nM | 270 nM | COc1ccc2c(NC3CCOC3C)ncnc2c1OC (single isomer, unassigned) [3 Stereoisomer 4]
600 nM | 1900 nM | 1200 nM | COc1ccc2c(NC3CCOC3)ncnc2c1OC (single isomer, unassigned) [1 Stereoisomer 2]
87 nM | 240 nM | 400 nM | COc1ccc2c(NC3(C)CCOC3C)ncnc2c1OC (single isomer, unassigned) [5 Stereoisomer 2]
94 nM | 490 nM | 310 nM | COc1ccc2c(NC3CCOC3C)ncnc2c1OC (single isomer, unassigned) [3 Stereoisomer 2]
840 nM | 4600 nM |  | COc1ccc2c(N[C@@H]3COC[C@@H]3O)ncnc2c1OC (relative stereo) [Compound 19, cis-4-((7,8-dimethoxyquinazolin-4-yl)amino)tetrahydrofuran-3-ol]
5 nM | 19 nM | 33 nM | COc1ccc2c(N(C)C3(C)CCOC3C)ncnc2c1OC (single isomer, unassigned) [20 Stereoisomer 1]
430 nM | 1100 nM | 1500 nM | COc1ccc2c(N(C)C3CCOC3C)ncnc2c1OC (single isomer, unassigned) [22 Stereoisomer 3]
260 nM | 1300 nM | 1600 nM | COc1ccc2c(NC3CCOC3(C)C)ncnc2c1OC (single isomer, unassigned) [21 Stereoisomer 2]
1300 nM | 2300 nM | 2600 nM | COc1ccc2c(N[C@@H]3COC[C@H]3O)ncnc2c1OC (relative stereo) [Compound 18, trans-4-((7,8-dimethoxyquinazolin-4-yl)amino)tetrahydrofuran-3-ol]
190 nM | 440 nM | 890 nM | COc1ccc2c(N(C)C3(C)CCOC3C)ncnc2c1OC (single isomer, unassigned) [20 Stereoisomer 3]
110 nM | 290 nM | 400 nM | COc1ccc2c(NC3(C)CCOC3)ncnc2c1OC (single isomer, unassigned) [6 Stereoisomer 1]
80 nM | 370 nM | 140 nM | COc1ccc2c(N(C)[C@@H]3CCOC3)ncnc2c1OC (single isomer, unassigned) [4 Stereoisomer 1]
6 nM | 33 nM | 67 nM | COc1ccc2c(NC3(C)CCOC3C)ncnc2c1OC (single isomer, unassigned) [5 Stereoisomer 3]
180 nM | 280 nM | 540 nM | CCCN(c1ncnc2c(OC)c(OC)ccc12)[C@H]1CCOC1 [Compound 9, (S)-7,8-dimethoxy-N-propyl-N-(tetrahydrofuran-3-yl)quinazolin-4-amine]
28 nM | 110 nM | 79 nM | COc1ccc2c(N(C)C3CCOC3C)ncnc2c1OC (single isomer, unassigned) [22 Stereoisomer 1]
820 nM | 2500 nM | 2100 nM | COc1ccc2c(N(CC3CC3)[C@@H]3CCOC3)ncnc2c1OC [Compound 15, (R)—N-(cyclopropylmethyl)-7,8-dimethoxy-N-(tetrahydrofuran-3-yl)quinazolin-4-amine]
62 nM | 150 nM | 160 nM | COc1ccc2c(NC3(C)CCOC3)ncnc2c1OC (stereo not shown) [Compound 6, 7,8-dimethoxy-N-(3-methyltetrahydrofuran-3-yl)quinazolin-4-amine]
55 nM | 160 nM | 170 nM | COc1ccc2c(N(C)C3(C)CCOC3)ncnc2c1OC (single isomer, unassigned) [23 Stereoisomer 2]

IC50 (PDE1B) | IC50 (PDE1A) | IC50 (PDE1C) | SMILES
37 nM | 140 nM | 110 nM | COc1ccc2c(NC3(C)CCOC3)ncnc2c1OC (single isomer, unassigned) [6 Stereoisomer 2]
300 nM | 590 nM | 1100 nM | COc1ccc2c(NC3(C)CCOC3C)ncnc2c1OC (single isomer, unassigned) [5 Stereoisomer 1]
33 nM | 130 nM | 130 nM | COc1ccc2c(NC3(C)CCOC3C)ncnc2c1OC (mixture of isomers) [Compound 5, N-(2,3-dimethyltetrahydrofuran-3-yl)-7,8-dimethoxyquinazolin-4-amine]
1100 nM | 1500 nM | 780 nM | COc1ccc2c(N(C)C3CCOC3C)ncnc2c1OC (single isomer, unassigned) [22 Stereoisomer 4]
600 nM | 1200 nM | 1500 nM | CCN(c1ncnc2c(OC)c(OC)ccc12)[C@@H]1CCOC1 [Compound 13, (R)—N-ethyl-7,8-dimethoxy-N-(tetrahydrofuran-3-yl)quinazolin-4-amine]
780 nM | 1500 nM | 2800 nM | COc1ccc2c(NC3CCOC3(C)C)ncnc2c1OC (single isomer, unassigned) [21 Stereoisomer 1]
420 nM | 850 nM | 1600 nM | COc1ccc2c(N(CC3CC3)[C@H]3CCOC3)ncnc2c1OC [Compound 11, (S)-N-(cyclopropylmethyl)-7,8-dimethoxy-N-(tetrahydrofuran-3-yl)quinazolin-4-amine]
360 nM | 820 nM | 1400 nM | COc1ccc2c(N(Cc3ccccc3)[C@H]3CCOC3)ncnc2c1OC [Compound 10, (S)-N-benzyl-7,8-dimethoxy-N-(tetrahydrofuran-3-yl)quinazolin-4-amine]
1200 nM | 2500 nM | 3000 nM | COc1ccc2c(NC3CCOC3C)ncnc2c1OC (single isomer, unassigned) [3 Stereoisomer 1]
230 nM | 1200 nM | 590 nM | COc1ccc2c(NC3CCOC3)ncnc2c1OC (racemic) [Compound 1, 7,8-Dimethoxy-N-(tetrahydrofuran-3-yl)quinazolin-4-amine]
35 nM | 210 nM | 55 nM | COc1ccc2c(N(C)C3CCOC3C)ncnc2c1OC (single isomer, unassigned) [22 Stereoisomer 2]
250 nM | 480 nM | 510 nM | CCN(c1ncnc2c(OC)c(OC)ccc12)[C@H]1CCOC1 [Compound 8, (S)-N-ethyl-7,8-dimethoxy-N-(tetrahydrofuran-3-yl)quinazolin-4-amine]
80 nM | 1400 nM | 140 nM | COc1ccc2c(N(C)[C@H]3CCOC3)ncnc2c1OC (single isomer, unassigned) [4 Stereoisomer 2]
100 nM | 890 nM | 390 nM | COc1ccc2c(NC3CCOC3C)ncnc2c1OC (single isomer, unassigned) [3 Stereoisomer 3]
410 nM | 1200 nM | 1600 nM | COc1ccc2c(N(Cc3ccccc3)[C@@H]3CCOC3)ncnc2c1OC [Compound 16, (R)—N-benzyl-7,8-dimethoxy-N-(tetrahydrofuran-3-yl)quinazolin-4-amine]
63 nM |  | 220 nM | CCC1(Nc2ncnc3c(OC)c(OC)ccc23)CCOC1 (stereo not shown) [Compound 24, N-(3-Ethyltetrahydrofuran-3-yl)-7,8-dimethoxyquinazolin-4-amine]
39 nM | 120 nM | 170 nM | COc1ccc2c(N(C)C3(C)CCOC3C)ncnc2c1OC (single isomer, unassigned) [20 Stereoisomer 4]
70 nM | 240 nM | 500 nM | COc1ccc2c(N(C)C3(C)CCOC3)ncnc2c1OC (single isomer, unassigned) [23 Stereoisomer 1]
84 nM | 360 nM | 140 nM | COc1ccc2c(N(C)C3CCOC3)ncnc2c1OC (stereo not shown) [Compound 4, 7,8-Dimethoxy-N-methyl-N-(tetrahydrofuran-3-yl)quinazolin-4-amine]
520 nM | 2200 nM | 1300 nM | COc1ccc2c(N[C@@H]3COC[C@H]3OC)ncnc2c1OC (relative stereo) [Compound 17, Trans-7,8-dimethoxy-N-(4-methoxytetrahydrofuran-3-yl)quinazolin-4-amine]
54 nM | 280 nM | 280 nM | COc1ccc2c(NC3CCOC3)ncnc2c1OC (single isomer, unassigned) [1 Stereoisomer 1]
